Measured values taken from patent US20230079732A1, “OPAL PEPTIDE ADMINISTRATION” (priority 2020, published 2023).
Like-named read-outs stand apart in the source and are kept apart here.

What was measured:
[1] = in vivo, po
Procedure: (§1) Conjugates of radiolabeled insulin and quantum dots were produced in a method as described above, albeit with radiolabeled insulin used instead of native insulin. Two groups of healthy rodents were then orally administered either a dose of conjugates or equivalent radiolabeled unbound insulin. The distribution of radioactivity was then monitored 30 minutes after administration.

blood glucose [2] = assay: Oral glucose tolerance test (oGTT), SC-INS versus QD-INS (FIG. 5); format: in vivo, C57BL/6 mice; settings: oral gavage 20 IU/kg, 30 minutes before oGTT
Procedure: A further study was carried out on healthy rodents without diabetic symptoms comparing a saline subcutaneous injection (control), a subcutaneous injection of insulin (SC-INS, 2 IU/kg), or an oral gavage of oral-insulin (QD-INS, 20 IU/kg) 30 minutes before a glucose tolerance test (oGTT).

blood glucose [3] = assay: Glucose tolerance test with an oral dose of conjugate (FIG. 4); format: in vivo, rodents; settings: for effect on blood glucose after glucose gavage: 30 minutes before glucose gavage, monitored 90 minutes (FIG. 4 legend)
Procedure: Each subject was then monitored for blood glucose over the 90 minutes after receiving the glucose gavage.
A population of 30 healthy rodents without diabetic symptoms were obtained, and were divided into six treatment groups: one group of 5 rodents received 2 IU/kg of insulin by intraperitoneal injection 30 minutes prior to a glucose gavage; one group received 100 IU/kg of insulin by via oral gavage 30 minutes prior to a glucose gavage; […] gavage; one group of 5 […] gavage and one group of five rodents were given only a glucose gavage. Blood glucose of all rodents were then monitored over 90 minutes post-glucose gavage.

blood glucose [4] = assay: Insulin tolerance test in diabetic NOD/Scid mouse model (FIG. 8); format: in vivo, NOD/Scid mice; settings: oral gavage versus subcutaneous injection
Procedure: NOD mice with a blood glucose below […] were treated with SC-INS (1 IU/kg) or QD-INS (25 IU/kg) at time 0, mice with a blood glucose above […] were treated with 4 IU/kg SC-INS or 100 IU/kg QD-INS. Blood glucose samples were collected at −15, 0, 15, 30, 45 and 60 mins. […] Data points showing the mean±SD.
Blood glucose was measured used a handheld Glucometer using Accu-check proforma strips. Blood was collected by tail vein sampling following a tail snip. Blood glucose was collected at −15, 0, 15, 30, 45 and 60 mins after a subcutaneous (SC) insulin injection (0.1, 1 or 2 IU/kg) or a gavage of QD-insulin conjugates (10, 20, 30, 40, 50, 75 or 100 IU/kg).

[5] = Biodistribution of ^14C radiolabelled insulin (FIG. 6); settings: for main location of radiolabelled insulin: after 30 minutes, mice fasted 4 hours
Procedure: Tissue samples and blood plasma were prepared for radiolabel component analysis according to standard methods. Data is presented in this figure is as a percentage of radiolabel insulin relative to the administrated dosage, data is shown as mean±SD.
Three mice treatment groups were fasted for 4 hours before given either an oral gavage of insulin (Oral INS), a subcutaneous injection of insulin (SC-INS) or an oral gavage of QD-insulin conjugate (QD-INS) at 2 IU/kg doses.

[6] = Uptake of radiolabeled insulin-quantum dot conjugate after oral administration; settings: 30 minutes after oral administration, healthy rodents
Procedure: as §1

Row | Substance | radioactive label found in the liver [1] | lowering of blood glucose levels in oGTT compared with injected insulin (SC-INS, 2 IU/kg) (blood glucose [2]) | effect on blood glucose after glucose gavage (blood glucose [3]; oral gavage equivalent to 20 IU/kg insulin) | blood glucose lowering effects compared with the injected insulin (blood glucose [3]; orally administered) | blood glucose lowering, no spike after glucose gavage (blood glucose [3]; quantum dot insulin group, oral, 30 minutes prior to glucose gavage (Example 3)) | QD-insulin dose relative to the SC-insulin dose that resulted in similar glucose reductions (blood glucose [4]) | blood glucose lowering, no spike after glucose gavage (blood glucose [3]; 2 IU/kg by intraperitoneal injection 30 minutes prior to glucose gavage (Example 3)) | effect on blood glucose after glucose gavage (blood glucose [3]; intraperitoneal injection equivalent to 0.1 IU/kg insulin) | main location of radiolabelled insulin ([5]; oral gavage 2 IU/kg) | main location of radiolabelled insulin ([5]; subcutaneous injection 2 IU/kg) | location of radiolabelled insulin ([5]; after 2 hours, oral gavage 2 IU/kg) | radiolabelled insulin located in the liver ([5]; after 2 hours, subcutaneous injection 2 IU/kg) | radioactive label found in the liver [6]
1 | QD-insulin: Ag2S quantum dot conjugated to insulin by EDC/NHS, then assembled with chitosan with galactose or glucose biopolymer | Approximately 50% | as effective | reduced the blood glucose of the rodent subjects by an approximately equivalent amount | equal, if not better | effective in lowering blood glucose | about 25 times | – | – | – | – | – | – | –
2 | insulin | – | – | – | – | – | – | effective in lowering blood glucose | reduced the blood glucose of the rodent subjects by an approximately equivalent amount | mainly located in the small bowel | found in the liver and blood | still located in the bowel | about 50% | approximately 1%
